Results reported in US12492188B2, “1H-benzo[D]imidazole derivatives as TLR9 inhibitors for the treatment of fibrosis” (BRISTOL-MYERS SQUIBB COMPANY, priority 2020, dated 2025).
Like-named read-outs stand apart in the source and are kept apart here.

Assays:
Assay type in all cases: cell-based
human TLR9 = target: T1, human TLR9 (Homo sapiens, UniProt Q9NR96); test: TLR9 inhibition reporter assay (HEK-Blue cells, secreted embryonic alkaline phosphatase reporter)
T1 construct: host or cells: HEK-Blue cells (HEK293-derived reporter line)
T1 sequence (Q9NR96 26-1032): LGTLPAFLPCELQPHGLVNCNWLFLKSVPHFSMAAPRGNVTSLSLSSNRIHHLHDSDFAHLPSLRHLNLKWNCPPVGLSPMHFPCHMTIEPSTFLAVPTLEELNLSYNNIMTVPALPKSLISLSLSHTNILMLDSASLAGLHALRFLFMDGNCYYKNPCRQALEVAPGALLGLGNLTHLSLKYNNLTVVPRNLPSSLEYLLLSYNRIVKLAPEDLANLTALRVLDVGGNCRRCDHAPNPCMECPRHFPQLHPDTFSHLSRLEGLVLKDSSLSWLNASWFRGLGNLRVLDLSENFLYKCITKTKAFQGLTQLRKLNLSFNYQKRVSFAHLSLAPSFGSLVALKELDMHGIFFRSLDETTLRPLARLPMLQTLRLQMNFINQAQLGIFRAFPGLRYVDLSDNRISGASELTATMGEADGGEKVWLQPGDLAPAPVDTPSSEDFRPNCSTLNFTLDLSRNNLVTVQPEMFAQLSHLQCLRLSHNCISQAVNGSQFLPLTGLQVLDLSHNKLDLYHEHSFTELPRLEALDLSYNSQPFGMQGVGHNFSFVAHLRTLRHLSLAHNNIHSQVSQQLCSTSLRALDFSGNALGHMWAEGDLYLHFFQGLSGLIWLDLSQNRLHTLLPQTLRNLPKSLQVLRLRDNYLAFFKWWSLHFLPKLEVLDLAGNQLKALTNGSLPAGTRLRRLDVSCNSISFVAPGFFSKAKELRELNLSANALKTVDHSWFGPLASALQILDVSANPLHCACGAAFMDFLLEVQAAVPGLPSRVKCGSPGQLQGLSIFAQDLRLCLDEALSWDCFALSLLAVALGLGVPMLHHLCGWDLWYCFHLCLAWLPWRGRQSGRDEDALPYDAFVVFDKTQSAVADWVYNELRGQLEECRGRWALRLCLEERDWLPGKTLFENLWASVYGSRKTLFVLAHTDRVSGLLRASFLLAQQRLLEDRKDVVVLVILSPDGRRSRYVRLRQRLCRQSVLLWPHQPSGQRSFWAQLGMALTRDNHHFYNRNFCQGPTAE
In short: (§1)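 HEK-Blue cells expressing human TLR7, TLR8 or TLR9 with an NF-κB/AP-1-driven SEAP reporter were pretreated with compound (0.05 nM–50 μM final) for 30 min at room temperature. Agonists were gardiquimod 7.5 μM for TLR7, R848 15.9 μM for TLR8 and ODN2006 5 nM for TLR9. SEAP was read after 22 h at 37 °C, and inhibition was calculated relative to agonist-plus-DMSO and known-inhibitor controls.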

human TLR7 = target: T2, human TLR7 (Homo sapiens, UniProt Q9NYK1); test: TLR7 inhibition reporter assay (HEK-Blue cells, secreted embryonic alkaline phosphatase reporter); settings: HEK-Blue cells overexpressing human TLR7, stimulated with gardiquimod 7.5 μM; read-out: TLR 7 IC50
T2 construct: host or cells: HEK-Blue cells (HEK293-derived reporter line)
T2 sequence (Q9NYK1 27-1049): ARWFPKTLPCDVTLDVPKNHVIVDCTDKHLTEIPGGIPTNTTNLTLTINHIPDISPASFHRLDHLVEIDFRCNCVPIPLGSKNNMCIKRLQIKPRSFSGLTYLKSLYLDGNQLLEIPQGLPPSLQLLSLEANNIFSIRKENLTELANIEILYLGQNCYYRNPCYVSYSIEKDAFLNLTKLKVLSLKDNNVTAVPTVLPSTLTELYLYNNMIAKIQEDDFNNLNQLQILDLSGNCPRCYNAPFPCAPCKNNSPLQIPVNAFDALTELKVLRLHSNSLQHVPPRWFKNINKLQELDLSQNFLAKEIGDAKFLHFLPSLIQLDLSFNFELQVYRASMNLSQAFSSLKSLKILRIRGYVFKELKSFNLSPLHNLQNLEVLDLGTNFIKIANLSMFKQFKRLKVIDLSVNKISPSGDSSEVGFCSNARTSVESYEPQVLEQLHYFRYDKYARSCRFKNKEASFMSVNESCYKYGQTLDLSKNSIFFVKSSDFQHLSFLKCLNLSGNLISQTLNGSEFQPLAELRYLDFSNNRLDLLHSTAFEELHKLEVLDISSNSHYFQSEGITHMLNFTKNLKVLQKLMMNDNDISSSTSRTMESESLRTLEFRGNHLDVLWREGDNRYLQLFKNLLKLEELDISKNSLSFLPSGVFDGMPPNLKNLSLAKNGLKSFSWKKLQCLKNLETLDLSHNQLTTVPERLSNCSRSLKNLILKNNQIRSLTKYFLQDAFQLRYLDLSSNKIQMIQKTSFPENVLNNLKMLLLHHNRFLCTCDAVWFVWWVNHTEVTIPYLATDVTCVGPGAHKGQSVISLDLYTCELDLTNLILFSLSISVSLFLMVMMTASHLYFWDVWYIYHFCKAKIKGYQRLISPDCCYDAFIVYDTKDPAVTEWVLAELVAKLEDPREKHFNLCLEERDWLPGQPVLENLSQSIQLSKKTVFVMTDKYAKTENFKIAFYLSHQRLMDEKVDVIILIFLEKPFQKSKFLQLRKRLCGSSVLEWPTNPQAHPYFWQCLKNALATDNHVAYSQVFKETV
In short: as §1

human TLR8 = target: T3, human TLR8 (Homo sapiens, UniProt Q9NR97); test: TLR8 inhibition reporter assay (HEK-Blue cells, secreted embryonic alkaline phosphatase reporter); settings: HEK-Blue cells overexpressing human TLR8, stimulated with R848 15.9 μM; read-out: TLR 8 IC50
T3 construct: host or cells: HEK-Blue cells (HEK293-derived reporter line)
T3 sequence (Q9NR97 27-1041): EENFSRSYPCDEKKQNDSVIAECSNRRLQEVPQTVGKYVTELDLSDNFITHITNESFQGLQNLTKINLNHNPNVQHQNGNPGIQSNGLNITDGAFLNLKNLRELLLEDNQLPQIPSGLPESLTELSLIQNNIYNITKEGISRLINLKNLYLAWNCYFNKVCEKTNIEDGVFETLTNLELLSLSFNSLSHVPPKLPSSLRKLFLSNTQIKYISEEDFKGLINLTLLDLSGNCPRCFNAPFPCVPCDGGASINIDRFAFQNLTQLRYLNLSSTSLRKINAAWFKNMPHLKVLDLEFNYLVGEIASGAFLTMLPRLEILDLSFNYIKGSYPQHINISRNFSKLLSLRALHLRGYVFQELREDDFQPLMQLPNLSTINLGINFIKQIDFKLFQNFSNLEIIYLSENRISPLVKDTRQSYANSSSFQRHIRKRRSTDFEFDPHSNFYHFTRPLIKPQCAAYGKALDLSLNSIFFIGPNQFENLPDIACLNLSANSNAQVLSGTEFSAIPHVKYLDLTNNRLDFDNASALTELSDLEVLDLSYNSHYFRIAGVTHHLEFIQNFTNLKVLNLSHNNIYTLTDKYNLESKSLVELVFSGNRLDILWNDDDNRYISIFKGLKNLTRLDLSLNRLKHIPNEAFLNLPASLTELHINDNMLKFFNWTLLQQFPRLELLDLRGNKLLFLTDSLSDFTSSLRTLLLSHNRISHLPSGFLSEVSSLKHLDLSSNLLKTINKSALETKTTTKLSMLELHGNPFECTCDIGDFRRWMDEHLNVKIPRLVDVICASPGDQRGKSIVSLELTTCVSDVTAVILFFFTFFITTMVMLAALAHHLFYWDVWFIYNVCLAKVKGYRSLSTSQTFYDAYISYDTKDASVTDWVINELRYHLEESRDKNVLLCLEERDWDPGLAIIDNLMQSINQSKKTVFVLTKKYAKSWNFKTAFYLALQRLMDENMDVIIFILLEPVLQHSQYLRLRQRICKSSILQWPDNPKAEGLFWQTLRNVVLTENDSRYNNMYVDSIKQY
In short: as §1

[1] = HEK-Blue cells overexpressing human TLR9, stimulated with ODN2006 5 nM, read-out: TLR 9 IC50

Row | SMILES | IC50 (human TLR9) | IC50 (human TLR9; [1]) | IC50 (human TLR7) | IC50 (human TLR8)
1 | Cc1cc(C2CCN(C3CC4CCC(C3)N4C3COC3)CC2)cc2c1nc(-c1ccc(S(C)(=O)=O)cc1)n2C (single isomer, unassigned) [Example 158, 1,4-dimethyl-2-(4-(methylsulfonyl)phenyl)-6-(1-(8-(oxetan-3-yl)-8-azabicyclo[3.2.1]octan-3-yl)piperidin-4-yl)-1H-benzo[d]imidazole] | 160 nM | 1610 nM | > 25000 nM | > 25000 nM
2 | Cc1cc(C2CCN(C3CC4CCC(C3)N4C3COC3)CC2)cc2c1nc(-c1ccc(S(C)(=O)=O)cc1)n2C (single isomer, unassigned) [Example 159, 1,4-dimethyl-2-(4-(methylsulfonyl)phenyl)-6-(1-(8-(oxetan-3-yl)-8-azabicyclo[3.2.1]octan-3-yl)piperidin-4-yl)-1H-benzo[d]imidazole] | 930 nM | 934 nM | > 25000 nM | > 25000 nM
3 | Cc1cc(C2CCN(C3CC4CCC(C3)N4C3CCOCC3)CC2)cc2c1nc(-c1ccc(S(C)(=O)=O)cc1)n2C (single isomer, unassigned) [Example 160, 1,4-dimethyl-2-(4-(methylsulfonyl)phenyl)-6-(1-(8-(tetrahydro-2H-pyran-4-yl)-8-azabicyclo[3.2.1]octan-3-yl)piperidin-4-yl)-1H-benzo[d]imidazole] | 52 nM | 52 nM | 23500 nM | > 25000 nM
4 | Cc1cc(C2CCN(C3CC4CCC(C3)N4C3CCOCC3)CC2)cc2c1nc(-c1ccc(S(C)(=O)=O)cc1)n2C (single isomer, unassigned) [Example 161, 1,4-dimethyl-2-(4-(methylsulfonyl)phenyl)-6-(1-(8-(tetrahydro-2H-pyran-4-yl)-8-azabicyclo[3.2.1]octan-3-yl)piperidin-4-yl)-1H-benzo[d]imidazole] | 210 nM | 211 nM | > 25000 nM | > 25000 nM
5 | COCCN1C2CCC1CC(N1CCC(c3cc(C)c4nc(-c5ccc(S(C)(=O)=O)cc5)n(C)c4c3)CC1)C2 (single isomer, unassigned) [Example 162, 6-(1-(8-(2-methoxyethyl)-8-azabicyclo[3.2.1]octan-3-yl)piperidin-4-yl)-1,4-dimethyl-2-(4-(methylsulfonyl)phenyl)-1H-benzo[d]imidazole] | 61 nM | 61 nM | 19900 nM | > 25000 nM
6 | COCCN1C2CCC1CC(N1CCC(c3cc(C)c4nc(-c5ccc(S(C)(=O)=O)cc5)n(C)c4c3)CC1)C2 (single isomer, unassigned) [Example 163, 6-(1-(8-(2-methoxyethyl)-8-azabicyclo[3.2.1]octan-3-yl)piperidin-4-yl)-1,4-dimethyl-2-(4-(methylsulfonyl)phenyl)-1H-benzo[d]imidazole] | 600 nM | 599 nM | 6200 nM | > 25000 nM
7 | COc1ccc(-c2nc3c(C)cc(C4CCN(C5CC6CCC(C5)N6C5COC5)CC4)cc3n2C)cc1OC (single isomer, unassigned) [Example 164, 2-(3,4-dimethoxyphenyl)-1,4-dimethyl-6-(1-(8-(oxetan-3-yl)-8-azabicyclo[3.2.1]octan-3-yl)piperidin-4-yl)-1H-benzo[d]imidazole] | 110 nM | 109 nM | > 25000 nM | > 25000 nM
8 | COc1ccc(-c2nc3c(C)cc(C4CCN(C5CC6CCC(C5)N6C5COC5)CC4)cc3n2C)cc1OC (single isomer, unassigned) [Example 165, 2-(3,4-dimethoxyphenyl)-1,4-dimethyl-6-(1-(8-(oxetan-3-yl)-8-azabicyclo[3.2.1]octan-3-yl)piperidin-4-yl)-1H-benzo[d]imidazole] | 1300 nM | 1300 nM | > 25000 nM | > 25000 nM
9 | COc1ccc(-c2nc3c(C)cc(C4CCN(C5CC6CCC(C5)N6C5CCOCC5)CC4)cc3n2C)cc1OC (single isomer, unassigned) [Example 166, 2-(3,4-dimethoxyphenyl)-1,4-dimethyl-6-(1-(8-(tetrahydro-2H-pyran-4-yl)-8-azabicyclo[3.2.1]octan-3-yl)piperidin-4-yl)-1H-benzo[d]imidazole] | 40 nM | 40 nM | 4700 nM | > 25000 nM
10 | COc1ccc(-c2nc3c(C)cc(C4CCN(C5CC6CCC(C5)N6C5CCOCC5)CC4)cc3n2C)cc1OC (single isomer, unassigned) [Example 167, 2-(3,4-dimethoxyphenyl)-1,4-dimethyl-6-(1-(8-(tetrahydro-2H-pyran-4-yl)-8-azabicyclo[3.2.1]octan-3-yl)piperidin-4-yl)-1H-benzo[d]imidazole] | 790 nM | 788 nM | > 25000 nM | > 25000 nM
